The source of these data is patent US12492173B2, “Herbicidal substituted N-tetrazolyl aryl carboxamides” (Bayer Aktiengesellschaft, priority 2019, dated 2025).

Molecules are shown by their SMILES.

Type in all cases: in vivo
For test [1], the system named is Echinochloa crus-galli. Put plainly: Post-emergence herbicidal action, ECHCG. Also on record: key: % herbicidal action vs untreated; 100 = plants died, 0 = like control. The following applies: for herbicidal action ECHCG: Dosage 80 g/ha; for Herbicidal action against ECHCG: post-emergence. In short, it runs like this: (§1)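 Greenhouse post-emergence test: weeds sown in sandy loam were sprayed once at one leaf, 2 to 3 weeks from sowing, with aqueous WP or EC preparations carrying 0.2% wetting agent. Effect is scored visually after about 3 weeks.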

In test [2] the test system is Echinochloa crus-galli. Put plainly: Pre-emergence herbicidal action, ECHCG. The settings on record: for herbicidal action ECHCG / herbicidal activity ECHCG: dosage 320 g/ha; for herbicidal activity ECHCG: scored visually after 3 weeks vs untreated controls (100% = plants have died). Further details: key to Herbicidal action against ECHCG: % activity: 100 = plants have died, 0 = like control plants. Put shortly: (§2)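 Pre-emergence, sandy loam soil; WP/EC formulation applied to covering soil surface, 600–800 l/ha water + 0.2% wetter; greenhouse, 3 wk; visual % damage vs untreated (0–100%).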

A further test relates to Pharbitis purpurea. The experiment in a line: Post-emergence herbicidal action, PHBPU. The following applies: for herbicidal action PHBPU: Dosage 80 g/ha; for Herbicidal action against PHBPU: post-emergence, dosage 80 g/ha. Put shortly: as §1
For another test, the system named is Setaria viridis. Put plainly: Post-emergence herbicidal action, SETVI. Also on record: key: % herbicidal action vs untreated; 100 = plants died, 0 = like control. The settings on record: for herbicidal action SETVI: Dosage 80 g/ha; for Herbicidal action against SETVI: post-emergence. In short, it runs like this: as §1
For a further test, the system named is Amaranthus retroflexus. The experiment in a line: Pre-emergence herbicidal action, AMARE. Also on record: key to Herbicidal action against AMARE: % activity: 100 = plants have died, 0 = like control plants. The settings on record: for herbicidal action AMARE / herbicidal activity AMARE: dosage 320 g/ha; for herbicidal activity AMARE: scored visually after 3 weeks vs untreated controls (100% = plants have died). In short, it runs like this:
as §2

Setting [3] is: comparative experiment, 5 g of a.i./ha.
[4] abbreviates: comparative experiment, 20 g of a.i./ha.

Regarding `Cc1c(C(=O)Nc2nnnn2C)ccc(C(F)F)c1C[S+](C)[O-]` (stereo not drawn) [Example 1-108], the results for the “herbicidal action ECHCG” value in the test with Echinochloa crus-galli [1] and in the test with Echinochloa crus-galli [2] were 80 and 100%, respectively. Further, in the test with Pharbitis purpurea, the “herbicidal action PHBPU” value is recorded as 90. Also, the “herbicidal action SETVI” value with Setaria viridis is 80. Besides, the “herbicidal action AMARE” value in the test with Amaranthus retroflexus worked out at 100%.

As for `COc1c(C(=O)Nc2nnnn2C)ccc(C(F)(F)F)c1C[S+](C)[O-]` (stereo not drawn) [Example 1-135], the “herbicidal action ECHCG” value in the test on Echinochloa crus-galli [1] was determined as 90; in the test on Echinochloa crus-galli [2] it was 100%. The “herbicidal action PHBPU” value with Pharbitis purpurea was 90. In addition, the “herbicidal action SETVI” value with Setaria viridis is recorded as 100. Further, in the test on Amaranthus retroflexus, the “herbicidal action AMARE” value is given as 100%.

As to `CCSCc1c(C(F)(F)F)ccc(C(=O)Nc2nnnn2C)c1SCC` [Example 1-182], the “herbicidal action ECHCG” value in the test with Echinochloa crus-galli [1] worked out at 90. The “Herbicidal action against ECHCG” value in the test on Echinochloa crus-galli [1] (setting [3]) and with Echinochloa crus-galli [2] (setting [4]) was 80 throughout. Also, in the test on Echinochloa crus-galli [2], the “herbicidal activity ECHCG” value is given as 100%. Further, in the test with Pharbitis purpurea, the “herbicidal action PHBPU” value worked out at 90. Also, in the test on Setaria viridis, the “herbicidal action SETVI” value amounted to 90. Also, the “Herbicidal action against SETVI” value with Setaria viridis (setting [3]) is 70. The “Herbicidal action against AMARE” value with Amaranthus retroflexus (setting [4]) came out at 70. For the same molecule, in the test on Amaranthus retroflexus, the “herbicidal activity AMARE” value is reported as 100%.

Take `Cn1nnnc1NC(=O)c1ccc(C(F)(F)F)c(CS(C)(=O)=O)c1C(F)(F)C(F)(F)F` [Example 1-552]: in the test with Echinochloa crus-galli [1], the “herbicidal action ECHCG” value was 90. Besides, the “herbicidal activity ECHCG” value in the test on Echinochloa crus-galli [2] is given as 100%. Further, the “herbicidal action PHBPU” value in the test on Pharbitis purpurea was found to be 100. Further, in the test with Setaria viridis, the “herbicidal action SETVI” value is on record as 80. Moreover, the “herbicidal activity AMARE” value in the test on Amaranthus retroflexus was 100%.

For the molecule `COc1c(C(=O)Nc2nnnn2C)ccc(Cl)c1CSC` [Example 1-570], in the test with Echinochloa crus-galli [1] (dosage 80 g/ha), the “Herbicidal action against ECHCG” value is on record as 100. The “herbicidal action ECHCG” value in the test on Echinochloa crus-galli [2] is reported as 90%. Also, the “Herbicidal action against PHBPU” value in the test with Pharbitis purpurea worked out at 90. Besides, the “Herbicidal action against SETVI” value with Setaria viridis (dosage 80 g/ha) is given as 80. Further, the “herbicidal action AMARE” value in the test on Amaranthus retroflexus is reported as 100%.

Turning to `CCn1nnnc1NC(=O)c1ccc(C(F)F)c(C[S+](C)[O-])c1SC` (stereo not drawn) [Example 2-171], the “herbicidal action ECHCG” value in the test on Echinochloa crus-galli [1] stood at 90. Besides, the “herbicidal activity ECHCG” value in the test on Echinochloa crus-galli [2] was 100%. Also, in the test with Pharbitis purpurea, the “herbicidal action PHBPU” value turned out to be 100. Besides, in the test with Setaria viridis, the “herbicidal action SETVI” value was found to be 90. For the same molecule, the “herbicidal activity AMARE” value with Amaranthus retroflexus came out at 100%.

In the case of `CCn1nnnc1NC(=O)c1ccc(S(C)(=O)=O)c(CS(C)(=O)=O)c1Cl` [Example 2-280], the “Herbicidal action against ECHCG” value in the test on Echinochloa crus-galli [1] (dosage 80 g/ha) turned out to be 90. Besides, in the test with Echinochloa crus-galli [2], the “herbicidal action ECHCG” value was determined as 100%. Further, in the test on Pharbitis purpurea, the “Herbicidal action against PHBPU” value is 90. In addition, in the test on Setaria viridis (dosage 80 g/ha), the “Herbicidal action against SETVI” value is recorded as 80. The “herbicidal action AMARE” value in the test with Amaranthus retroflexus was found to be 100%.

In the case of `CCn1nnnc1NC(=O)c1ccc(C(F)(F)F)c(C[S+]([O-])CC2CC2)c1Cl` (stereo not drawn) [Example 2-315], the “herbicidal action ECHCG” value in the test with Echinochloa crus-galli [1] is listed as 100. For the same molecule, the “herbicidal activity ECHCG” value in the test on Echinochloa crus-galli [2] is recorded as 100%. Also, the “herbicidal action PHBPU” value in the test with Pharbitis purpurea turned out to be 100. Further, the “herbicidal action SETVI” value in the test on Setaria viridis worked out at 100. For the same molecule, the “herbicidal activity AMARE” value with Amaranthus retroflexus turned out to be 100%.

As to `CCCn1nnnc1NC(=O)c1ccc(S(C)(=O)=O)c(CSC)c1C` [Example 3-37], the “herbicidal action ECHCG” value with Echinochloa crus-galli [1] came out at 100. For the same molecule, the “herbicidal action PHBPU” value in the test on Pharbitis purpurea is given as 80. Further, the “herbicidal action SETVI” value with Setaria viridis was determined as 90. Besides, in the test on Amaranthus retroflexus, the “herbicidal action AMARE” value was 100%.

For `CCCn1nnnc1NC(=O)c1ccc(C(F)F)c(CSC)c1SC` [Example 3-170], the “herbicidal action ECHCG” value with Echinochloa crus-galli [1] was found to be 90. Also, the “herbicidal activity ECHCG” value in the test with Echinochloa crus-galli [2] was 100%. Further, the “herbicidal action PHBPU” value in the test with Pharbitis purpurea was 90. In addition, the “herbicidal activity AMARE” value in the test on Amaranthus retroflexus was found to be 100%.

Regarding `CCCn1nnnc1NC(=O)c1ccc(C(F)F)c(C[S+](C)[O-])c1SC` (stereo not drawn) [Example 3-171], in the test with Echinochloa crus-galli [1], the “herbicidal action ECHCG” value amounted to 90. Further, in the test with Echinochloa crus-galli [2], the “herbicidal activity ECHCG” value was found to be 100%. For the same molecule, in the test with Pharbitis purpurea, the “herbicidal action PHBPU” value was 90. For the same molecule, the “herbicidal activity AMARE” value in the test with Amaranthus retroflexus came out at 100%.

Take `CCCn1nnnc1NC(=O)c1ccc(C(F)F)c(CS(C)(=O)=O)c1SC` [Example 3-172]: the “herbicidal action ECHCG” value with Echinochloa crus-galli [1] came out at 90. The “herbicidal activity ECHCG” value in the test with Echinochloa crus-galli [2] amounted to 100%. Besides, the “herbicidal action PHBPU” value in the test with Pharbitis purpurea is 100. In the test on Amaranthus retroflexus, the “herbicidal activity AMARE” value worked out at 100%.
